The results in this text go back to US9302993B2, “8-hydroxy quinoline derivatives” (PRANA BIOTECHNOLOGY LIMITED, priority 2002, dated 2016).

Data set [1] deals with T1, hydrogen peroxide generation by Aβ in the presence of copper (Homo sapiens, UniProt P05067).
T1 construct: The reaction solutions contained Aβ 1-42 at concentrations in the range of 50 nM to 1 μM
Nature of the data set: Fluorometric H2O2 assay (Assay 1). Type of data set: biochemical. As to conditions: Aβ 1-42 with Cu-Gly, DCF/HRP, 37 C 60 min; several values in one cell = repeat determinations; read-out: Peroxide IC50. As to the method: Assay 1. Fluorometric H2O2 Assay
A fluorometric assay was used to test the ability of a test compound to inhibit hydrogen peroxide generation by Aβ in the presence of copper based on dichlorofluoroscein diacetate (DCF; Molecular Probes, Eugene Oreg.). The DCF solution (5 mM) in 100% dimethyl sulphoxide (previously purged with argon for 2 hr at 20° C.) was deacetylated in the presence of 0.25M NaOH for 30 min and neutralised at pH 7.4 to a final concentration of 1 mM. Horseradish peroxidase (HRP) stock solution was prepared to 1 μM at pH 7.4. The reactions were carried out in PBS, pH 7.4 in a 96 well plate (total volume=250 μl/well). The reaction solutions contained Aβ 1-42 at concentrations in the range of 50 nM to 1 μM, copper-glycine chelate (Cu-Gly), was prepared by adding CuCl2 to glycine in the ratio of 1:6 and added to the Aβ in the proportion 2Cu-Gly: 1Aβ), reducing agents including dopamine (5 μM) or ascorbic acid, deacetylated DCF 100 μM, and HRP, 0.1 μM. […] The reaction mixture was incubated at 37 C for 60 min. […] H2O2 concentration may be established by comparing fluorescence with the H2O2 standards. Inhibition of AB H2O2 production was assayed by including a given concentration of test compound(s) in the test wells.

For data set [2], the system named is Neuronal cortical cells. Nature of the data set: Assay for test compound cytoxicity, MTS (Assay 3(d)). Type of data set: cell-based, mouse. As to conditions: BL6J×129sv, mouse, 4 days. As to the method:
(§1) Media was then replaced with Neurobasal media (Invitrogen Life Technologies) and B27 supplements (Invitrogen Life Technologies). Cultures were maintained at 37° C. in 5% CO2. Prior to experimentation, the culture medium was replaced with Neurobasal media and B27 minus antioxidants (Invitrogen Life Technologies).
Cell viability is determined using the MTS assay. Culture medium is […] replaced with fresh neurobasal medium plus B27 supplements minus antioxidants. 1/10th volume MTS solution (Cell Titre 96 Aqueous One, Promega Corporation) and incubated at 37° C., 2 hrs. 200 microliter aliquots are measured with a spectrophotometer at 560 nm.
(d) Assay for Test Compound Cytoxicity
Neuronal cortical cells were cultured for five days as per Assay 2 in NB media and B27 supplement.
On day six the test compounds were added to the neuronal cell cultures in NB media and B27 supplement minus antioxidants.
Test compounds were dissolved in 100% DMSO to a concentration of 2.5 mM (10 mM if excess compound was weighed out per vial—then diluted to 2.5 mM). […] Test compounds were not added directly to cells, instead they were added to a 48 well ‘Drug Plate’ as comprised below:
(§2) The Drug Plate was incubated at 37° C. for 15 mins. 200 ul of each well was added in triplicate to the corresponding cell plate. The cell plate was incubated at 37 C, for 4 days.
On completion of the assay, 1/10 volume MTS was added per well of plate (ie 25 ul/250 ul). The plates were incubated at 37 C for 2 hrs, and then absorbance was read at 560 nm.

Data set [3] relates to Neuronal cortical cells treated with Aβ1-42. Nature of the data set: Assay for Aβ neurotoxicity and Aβ neuroprotection (Assay 3(c)). Format: cell-based, mouse. As to conditions: 20 uM Aβ1-42, 4 days, MTS. The protocol:
as §1
(c) Assay for Aβ Neurotoxicity and Aβ Neuroprotection
Neuronal cortical cells were cultured for five days as per Assay 2. On day six the neurobasal (NB) media (Invitrogen Life Technologies) and B27 supplement (Invitrogen Life Technologies) were replaced with NB media and B27 supplement (no antioxidants). On day six, test compounds were individually added to the neuronal cell cultures:
Aβ was initially dissolved in 20 mM NaOH to a concentration of 1 mM and sonicated for 5 minutes. The peptide was then diluted in H2O and 10×PBS to a final concentration of 200 uM Aβ in 1×PBS. The peptide was again sonicated for 5 minutes and then spun at 14000 rpm for 5 min and transferred to a fresh tube.
The test compounds were dissolved in 100% DMSO to a concentration of 2.5 mM (10 mM if excess compound was weighed out per vial—then diluted to 2.5 mM). […] Test compounds were not added directly to cells, instead they were added to a 48 well ‘Drug Plate’ as comprised below:
as §2
On the 4th day after treating the cells the assay is completed by adding MTS to the cells.

T1 sequence (P05067 672-713 limits assumed): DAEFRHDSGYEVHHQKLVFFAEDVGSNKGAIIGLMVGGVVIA

For the compound `Oc1cccc2ccc(CN(Cc3ccccn3)Cc3ccccn3)nc12` [compound 1010], the IC50 in data set [1] is 330 nM. In data set [2], the “Test Compound Cytoxicity 1 uM” value came out at 88 and the “Test Compound Cytoxicity 10 uM” value came out at 27. Further, the “% inhibition Abeta toxicity” value in data set [3] is on record as 12%.
For `CC(=O)NC(=O)c1ccc2cccc(O)c2n1` [compound 1021], in that order: 270 nM, 93, 81 and 1%.
As for `Oc1cccc2ccc(CN(CCc3c[nH]cn3)Cc3c[nH]cn3)nc12` [compound 1008], the IC50 in data set [1] came to 260 nM. For the same compound, in data set [2], the “Test Compound Cytoxicity 1 uM” value is 86 and the “Test Compound Cytoxicity 10 uM” value was determined as 28. Further, the “% inhibition Abeta toxicity” value in data set [3] is given as 9%.
As for `CN(c1ccccn1)c1ccc2c(Cl)cc(Cl)c(O)c2n1` [compound 1056, 5,7-Dichloro-8-hydroxy-2-(methyl-pyridin-2-yl-amino)-quinoline], the IC50 in data set [1] came to 690 nM. Moreover, in data set [2], the “Test Compound Cytoxicity 1 uM” value was determined as 96.44, the “Test Compound Cytoxicity 10 uM” value was 68.25 and the “Viable 10 uM” value was determined as 68.25. In addition, the “% inhibition Abeta toxicity” value in data set [3] was 39%.
Turning to `O=C(O)c1ccc2c(Cl)cc(Cl)c(O)c2n1` [compound 1039], in data set [1], the IC50 is > 10000 nM. Moreover, in data set [2], the “Test Compound Cytoxicity 1 uM” value was found to be 94 and the “Test Compound Cytoxicity 10 uM” value was 87. Further, the “% inhibition Abeta toxicity” value in data set [3] amounted to 9%.
Turning to `O=C(c1ccc2cccc(O)c2n1)N(Cc1ccccn1)Cc1ccccn1` [compound 1020], the IC50 in data set [1] was found to be 1300 nM. In data set [2], the “Test Compound Cytoxicity 1 uM” value was determined as 85 and the “Test Compound Cytoxicity 10 uM” value is reported as 83. The “% inhibition Abeta toxicity” value in data set [3] stood at 4%.
On to `Oc1c(Cl)cc(Cl)c2cc(Cl)cnc12` [compound 1058, 3,5,7-trichloro-8-hydroxyquinoline], for which the IC50 in data set [1] is 680 nM. Also, in data set [2], the “Test Compound Cytoxicity 1 uM” value stood at 82.47, the “Test Compound Cytoxicity 10 uM” value is reported as 54.60 and the “Viable 10 uM” value turned out to be 54.60. The “% inhibition Abeta toxicity” value in data set [3] was determined as 30%.
For `Oc1c(Br)cc(Br)c2cccnc12` [compound 47], in data set [1], the IC50 amounted to 900 nM. Besides, in data set [2], the “Test Compound Cytoxicity 1 uM” value came to 88, the “Test Compound Cytoxicity 10 uM” value is listed as 86 and the “Viable 10 uM” value was 93.59. The “% inhibition Abeta toxicity” value in data set [3] is 13%.
For the compound `Oc1c(Cl)cc(-c2cccnc2)c2cccnc12` [compound 1057, 7-chloro-5-(pyridin-3-yl)-quinolin-8-ol], the IC50 in data set [1] was determined as 430 nM. For the same compound, in data set [2], the “Test Compound Cytoxicity 1 uM” value was 101.84, the “Test Compound Cytoxicity 10 uM” value worked out at 95.02 and the “Viable 10 uM” value came out at 95.02. In data set [3], the “% inhibition Abeta toxicity” value was determined as 4%.
With `Oc1cccc2ccc(CN(CCc3c[nH]cn3)Cc3ccccn3)nc12` [compound 1009], the IC50 in data set [1] turned out to be 320 nM. Moreover, in data set [2], the “Test Compound Cytoxicity 1 uM” value was 94 and the “Test Compound Cytoxicity 10 uM” value turned out to be 32. In data set [3], the “% inhibition Abeta toxicity” value is recorded as 16%.
For `Cc1cccc(-c2ccc3cccc(O)c3n2)n1` [compound 1007], in that order: 580 nM, 90, 43 and 9%.
For `Oc1cccc2ccc(CN(CCc3c[nH]cn3)Cc3nccs3)nc12` [compound 1002], in that order: 390 nM, 82, 34 and 17%.
In the case of `CO/N=C/c1ccc2c(Cl)cc(Cl)c(O)c2n1` [compound 1032], the IC50 in data set [1] came out at 1000 nM. Besides, in data set [2], the “Test Compound Cytoxicity 1 uM” value is reported as 83 and the “Test Compound Cytoxicity 10 uM” value is reported as 42. For the same compound, in data set [3], the “% inhibition Abeta toxicity” value is on record as −2%.

The term IC50 denotes the concentration needed to halve the response being measured.
